According to patent US10550102B2, “Indane and indoline derivatives and the use thereof as soluble guanylate cyclase activators” (NOVARTIS AG, priority 2014, dated 2020):

Target: soluble guanylate cyclase (human GUCYA3 and GUCYB3) overexpressed in CHO cells (Homo sapiens (Human), UniProt Q02108+Q02153)
Assay: CHO cellular assay (cGMP production, Cisbio cGMP HTRF kit)
Type: cell-based
Details: CHO GUCY clone 8E10, cGMP production, assay buffer with 1 mM IBMX and 20 uM ODQ, 1 h room temperature; minimum quantification limit 0.5 nM (listed 0.5 nM means ≤0.5 nM); read-out: EC50
Method in brief: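 Stable CHO-K1 clone 8E10 expressing human sGC (GUCYA3/GUCYB3), 3000 cells/well, exposed 1 h at room temperature to activators in HBSS, 0.1% BSA, 1 mM IBMX, 20 uM ODQ, 0.5% DMSO final. cGMP was measured by HTRF and interpolated from a standard curve. EC50 came from a 4-parameter sigmoidal fit.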

soluble guanylate cyclase (human GUCYA3 and GUCYB3) overexpressed in CHO cells, sequence (Q02108 whole entry partner): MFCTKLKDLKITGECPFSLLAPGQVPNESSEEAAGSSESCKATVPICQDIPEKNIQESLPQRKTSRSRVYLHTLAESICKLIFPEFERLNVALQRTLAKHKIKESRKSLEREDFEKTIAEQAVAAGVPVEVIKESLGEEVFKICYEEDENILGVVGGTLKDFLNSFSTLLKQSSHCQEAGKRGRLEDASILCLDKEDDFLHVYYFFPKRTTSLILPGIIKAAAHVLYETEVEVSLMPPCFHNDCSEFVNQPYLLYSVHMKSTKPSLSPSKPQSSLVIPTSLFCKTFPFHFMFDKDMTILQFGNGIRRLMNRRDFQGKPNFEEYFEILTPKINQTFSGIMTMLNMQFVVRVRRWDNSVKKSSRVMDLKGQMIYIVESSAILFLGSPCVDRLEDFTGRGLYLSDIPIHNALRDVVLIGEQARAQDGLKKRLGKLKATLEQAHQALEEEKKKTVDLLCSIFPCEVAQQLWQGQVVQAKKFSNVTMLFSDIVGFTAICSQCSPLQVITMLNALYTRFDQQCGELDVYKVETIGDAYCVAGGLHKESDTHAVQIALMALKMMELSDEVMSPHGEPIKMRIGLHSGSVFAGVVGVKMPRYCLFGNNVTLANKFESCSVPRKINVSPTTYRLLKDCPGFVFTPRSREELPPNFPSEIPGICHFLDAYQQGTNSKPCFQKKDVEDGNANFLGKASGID
soluble guanylate cyclase (human GUCYA3 and GUCYB3) overexpressed in CHO cells, sequence (Q02153 whole entry): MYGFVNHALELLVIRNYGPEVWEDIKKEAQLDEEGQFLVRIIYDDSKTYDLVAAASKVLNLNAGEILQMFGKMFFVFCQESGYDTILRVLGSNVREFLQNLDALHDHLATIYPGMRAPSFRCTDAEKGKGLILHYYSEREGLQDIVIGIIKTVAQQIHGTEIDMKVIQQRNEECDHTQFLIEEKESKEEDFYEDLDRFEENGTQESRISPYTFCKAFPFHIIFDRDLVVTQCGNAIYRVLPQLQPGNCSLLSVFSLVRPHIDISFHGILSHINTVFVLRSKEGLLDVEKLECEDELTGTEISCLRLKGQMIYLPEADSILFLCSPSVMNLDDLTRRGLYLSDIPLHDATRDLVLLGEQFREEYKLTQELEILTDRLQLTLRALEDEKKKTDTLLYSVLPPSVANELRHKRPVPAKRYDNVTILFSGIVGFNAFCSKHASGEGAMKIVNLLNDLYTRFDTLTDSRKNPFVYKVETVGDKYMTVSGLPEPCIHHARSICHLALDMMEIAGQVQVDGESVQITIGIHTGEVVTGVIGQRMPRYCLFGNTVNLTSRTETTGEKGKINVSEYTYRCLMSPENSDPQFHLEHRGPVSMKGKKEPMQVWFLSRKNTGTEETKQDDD

Going from Cc1nnc(N2CCC(c3ccc(NC4CCc5cccc(-c6cccc(-n7ncc(C(=O)O)c7C)n6)c54)c(C)c3)CC2)o1 (single isomer, unassigned; (-)) [58. b). (−), (−)-5-methyl-1-(6-(3-((2-methyl-4-(1-(5-methyl-1,3,4-oxadiazol-2-yl)piperidin-4-yl)phenyl)amino)-2,3-dihydro-1H-inden-4-yl)pyridin-2-yl)-1H-pyrazole-4-carboxylic acid] to CCC(=O)N1CCC(c2ccc(NC3CCc4cccc(-c5cccc(-n6ncc(C(=O)O)c6C)n5)c43)c(C)c2)CC1 (single isomer, unassigned; (-)) [(−)-46-2], the EC50 rises from 3.2 nM to 160 nM (50-fold).

Going from CCc1c(C(=O)O)cnn1-c1cccc(-c2cccc3c2N(Cc2ccc(C4CCN(C(=O)C5CC5)CC4)cc2C)CC3C)n1 (single isomer, unassigned; (-)) [(−)-20-2, (−)-1-(6-(1-(4-(1-(Cyclopropanecarbonyl)piperidin-4-yl)-2-methylbenzyl)-3-methylindolin-7-yl)pyridin-2-yl)-5-ethyl-1H-pyrazole-4-carboxylic acid] to CCc1c(C(=O)O)cnn1-c1cccc(-c2cccc3c2C(Nc2ccc(C4CCN(C(=O)C5CC5)CC4)cc2C)CC3)n1 (single isomer, unassigned; (-)) [Example 10b, (−)-1-(6-(3-((4-(1-(Cyclopropanecarbonyl)piperidin-4-yl)-2-methylphenyl)amino)-2,3-dihydro-1H-inden-4-yl)pyridin-2-yl)-5-ethyl-1H-pyrazole-4-carboxylic Acid], the EC50 rises from 1 nM to 49 nM (49-fold). The first is the more potent here.

Going from CCc1cc(NC2COc3cccc(-c4cccc(-n5ncc(C(=O)O)c5C(F)(F)F)n4)c32)ccc1C1CCN(C(=O)C2CC2)CC1 (single isomer, unassigned; (-)) [(−)-36-1, (−)-1-(6-(3-((4-(1-(Cyclopropanecarbonyl)piperidin-4-yl)-3-ethylphenyl)amino)-2,3-dihydrobenzofuran-4-yl)pyridin-2-yl)-5-(trifluoromethyl)-1H-pyrazole-4-carboxylic acid] to CCc1cc(NC2COc3cccc(-c4cccc(-n5ncc(C(=O)O)c5CC)n4)c32)ccc1C1CCN(C(=O)C2CC2)CC1 (single isomer, unassigned; (-)) [(−)-36-2, (−)-1-(6-(3-((4-(1-(Cyclopropanecarbonyl)piperidin-4-yl)-3-ethylphenyl)amino)-2,3-dihydrobenzofuran-4-yl)pyridin-2-yl)-5-ethyl-1H-pyrazole-4-carboxylic acid], the EC50 falls from 20 nM to 1 nM (20-fold). The second is the more potent here.

Compared with Cc1cc(C2CCN(C(=O)C(C)C)CC2)ccc1NC1CCc2cccc(-c3cccc(-n4ncc(C(=O)O)c4C)n3)c21 (single isomer, unassigned; (-)) [(−)-46-1, (−)-1-(6-(3-((4-(1-isobutyrylpiperidin-4-yl)-2-methylphenyl)amino)-2,3-dihydro-1H-inden-4-yl)pyridin-2-yl)-5-methyl-1H-pyrazole-4-carboxylic acid], Cc1cc(C2CCN(C(=O)C3CC3)CC2)ccc1NC1CCc2cccc(-c3cccc(-n4ncc(C(=O)O)c4C)n3)c21 (single isomer, unassigned; (-)) [Example 7b, (−)-1-(6-(3-((4-(1-(Cyclopropanecarbonyl)piperidin-4-yl)-2-methylphenyl)amino)-2,3-dihydro-1H-inden-4-yl)pyridin-2-yl)-5-methyl-1H-pyrazole-4-carboxylic Acid] is 42-fold lower in EC50: 100 nM for the first, 2.4 nM for the second. The second is the more potent here.

First: Cc1cc(C2CCN(C(=O)CC3CC3)CC2)ccc1NC1CCc2cccc(-c3cccc(-n4ncc(C(=O)O)c4C)n3)c21 (single isomer, unassigned; (-)) [(−)-46-3, (−)-1-(6-(3-((4-(1-(2-Cyclopropylacetyl)piperidin-4-yl)-2-methylphenyl)amino)-2,3-dihydro-1H-inden-4-yl)pyridin-2-yl)-5-methyl-1H-pyrazole-4-carboylic acid]
Second: Cc1cc(C2CCN(C(=O)CC3CC3)CC2)c(F)cc1NC1CCc2cccc(-c3cccc(-n4ncc(C(=O)O)c4C)n3)c21 (single isomer, unassigned; (-)) [(−)-46-5, (−)-1-(6-(3-((4-(1-(2-Cyclopropylacetyl)piperidin-4-yl)-5-fluoro-2-methylphenyl)amino)-2,3-dihydro-1H-inden-4-yl)pyridin-2-yl)-5-methyl-1H-pyrazole-4-carboxylic acid]
The EC50 of the first is 2.2-fold lower: 303 nM for the first, 681 nM for the second.

Going from CCOC(=O)N1CCC(c2ccc(NC3CCc4cccc(-c5cccc(-n6ncc(C(=O)O)c6CC)n5)c43)cc2CC)CC1 (single isomer, unassigned; (-)) [(−)-52-1, (−)-1-(6-(3-((4-(1-(Ethoxycarbonyl)piperidin-4-yl)-3-ethylphenyl)amino)-2,3-dihydro-1H-inden-4-yl)pyridin-2-yl)-5-ethyl-1H-pyrazole-4-carboxylic acid] to CCc1cc(NC2CCc3cccc(-c4cccc(-n5ncc(C(=O)O)c5CC)n4)c32)ccc1C1CCN(C(=O)OC)CC1 (single isomer, unassigned; (-)) [(−)-52-2, (−)-5-Ethyl-1-(6-(3-((3-ethyl-4-(1-(methoxycarbonyl)piperidin-4-yl)phenyl)amino)-2,3-dihydro-1H-inden-4-yl)pyridin-2-yl)-1H-pyrazole-4-carboxylic acid], the EC50 falls from 19 nM to 1 nM (19-fold). The second is the more potent here.

Compared with C=CCOC(=O)N1CCC(c2ccc(NC3CCc4cccc(-c5cccc(-n6ncc(C(=O)O)c6CC)n5)c43)cc2CC)CC1 (single isomer, unassigned; (-)) [(−)-52-3, (−)-1-(6-(3-((4-(1-((Allyloxy)carbonyl)piperidin-4-yl)-3-ethylphenyl)amino)-2,3-dihydro-1H-inden-4-yl)pyridin-2-yl)-5-ethyl-1H-pyrazole-4-carboxylic acid], CCc1cc(NC2CCc3cccc(-c4cccc(-n5ncc(C(=O)O)c5CC)n4)c32)ccc1C1CCN(C(=O)C2CC2)CC1 (single isomer, unassigned; (-)) [(−)-53-1, (−)-1-(6-(3-((4-(1-(cyclopropanecarbonyl)piperidin-4-yl)-3-ethylphenyl)amino)-2,3-dihydro-1H-inden-4-yl)pyridin-2-yl)-5-ethyl-1H-pyrazole-4-carboxylic acid] is 7-fold higher in EC50: 3 nM for the first, 21 nM for the second. The first is the more potent here.

First: Cc1cc(C2CCN(C(=O)CC3CC3)CC2)cc(F)c1NC1CCc2cccc(-c3cccc(-n4ncc(C(=O)O)c4C)n3)c21 (single isomer, unassigned; (-)) [(−)-53-3, (−)-1-(6(3-((4-(1-(2-cyclopropylacetyl)piperidin-4-yl)-2-fluoro-6-methylphenyl)amino)-2,3-dihydro-1H-inden-4-yl)pyridin-2-yl)-5-methyl-1H-pyrazole-4-carboxylic acid]
Second: Cc1cc(C2CCN(C(=O)C3CC3)CC2)ccc1CC1CCc2cccc(-c3cccc(-n4ncc(C(=O)O)c4C)n3)c21 (single isomer, unassigned; (-)) [Example 37. b). (−), (−)-1-(6-(3-(4-(1-(cyclopropanecarbonyl)piperidin-4-yl)-2-methylbenzyl)-2,3-dihydro-1H-inden-4-yl)pyridin-2-yl)-5-methyl-1H-pyrazole-4-carboxylic Acid]
The EC50 of the first is 9.4-fold higher: 59 nM for the first, 6.3 nM for the second.

First: Cc1cc(C2CCN(C(=O)C3CC3)CC2)ccc1NC1CCc2cccc(-c3cccc(-n4ncc(C(=O)O)c4C(F)F)n3)c21 (single isomer, unassigned; (-)) [(−)-53-4, (−)-1-(6-(3-((4-(1-(cyclopropanecarbonyl)piperidin-4-yl)-2-methylphenyl)amino)-2,3-dihydro-1H-inden-4-yl)pyridin-2-yl)-5-(difluoromethyl)-1H-pyrazole-4-carboxylic acid]
Second: Cc1c(C(=O)O)cnn1-c1cccc(-c2cccc3c2C(Nc2ccc(C4CCN(C(=O)C5CC5)CC4)cc2)CC3)n1 (single isomer, unassigned; (-)) [Example 9. b). (−), (−)-1-(6-(3-((4-(1-(cyclopropanecarbonyl)piperidin-4-yl)phenyl)amino)-2,3-dihydro-1H-inden-4-yl)pyridin-2-yl)-5-methyl-1H-pyrazole-4-carboxylic acid]
The EC50 of the first is 7.7-fold lower: 24 nM for the first, 184 nM for the second. The first is the more potent here.

Compared with Cc1cc(C2CCN(C(=O)C3CC3)CC2)ccc1NC1CCc2cccc(-c3cccc(-n4ncc(C(=O)O)c4C(F)(F)F)c3)c21 (single isomer, unassigned; (-)) [Example 6. b). (−), (−)-1-(3-(3-((4-(1-(cyclopropanecarbonyl)piperidin-4-yl)-2-methylphenyl)amino)-2,3-dihydro-1H-inden-4-yl)phenyl)-5-(trifluoromethyl)-1H-pyrazole-4-carboxylic acid], Cc1cc(C2CCN(C(=O)C3CC3)CC2)ccc1NC1COc2cccc(-c3cccc(-n4ncc(C(=O)O)c4C)n3)c21 (single isomer, unassigned; (-)) [Example 34b] is 6.2-fold lower in EC50: 24 nM for the first, 3.9 nM for the second. The second is the more potent here.

First: Cc1cc(C2CCN(C(=O)[C@H](C)O)CC2)ccc1NC1COc2cccc(-c3cccc(-n4ncc(C(=O)O)c4C)n3)c21 (single isomer, unassigned; (-)) [Example 35b]
Second: CCc1c(C(=O)O)cnn1-c1cccc(-c2cccc3c2C(Cc2ccc(C4CCN(C(=O)OC)CC4)cc2C)CC3)n1 (single isomer, unassigned; (-)) [Example 42. b). (−), (−)-5-ethyl-1-(8-(3-(4-(1-(methoxycarbonyl)piperidin-4-yl)-2-methylbenzyl)-2,3-dihydro-1H-inden-4-yl)pyridin-2-yl)-1H-pyrazole-4-carboxylic acid]
The EC50 of the first is 5.5-fold lower: 17 nM for the first, 93 nM for the second. The first is the more potent here.

Compared with CCc1cc(CC2CCc3cccc(-c4cccc(-n5ncc(C(=O)O)c5CC)n4)c32)ccc1C1CCN(C(=O)[C@H](C)O)CC1 (single isomer, unassigned; (-)) [Example 39. b). (−)], CCc1cc(CC2CCc3cccc(-c4cccc(-n5ncc(C(=O)O)c5CC)n4)c32)ccc1C1CCN(C(=O)OC)CC1 (single isomer, unassigned; (-)) [Example 41. b). (−), (−)-5-ethyl-1-(6-(3-(3-ethyl-4-(1-(methoxycarbonyl)piperidin-4-yl)benzyl)-2,3-dihydro-1H-inden-4-yl)pyridin-2-yl)-1H-pyrazole-4-carboxylic acid] is 18-fold higher in EC50: 1 nM for the first, 18 nM for the second.
